As usually defined, the Ki is the dissociation constant of the complex between target and ligand, obtained from inhibition or displacement. Higher therefore signals lower affinity. As usually defined, the IC50 is the concentration needed to halve the response being measured. Lower therefore signals inhibition by little substance.

For data set [1], the target named is T1, PCP binding site of NMDA receptors (Rattus norvegicus, UniProt P35439).
T1 construct: NMDA receptors in rat cerebral cortex cells; tissue CEREP #0124; host or cells: rat cerebral cortex
The data set can be described thus: CEREP NMDA PCP site binding study (PCP antagonist radioligand assay #0124). As to the method:
The specific ligand binding to the receptors is defined as the difference between the total binding and the nonspecific binding determined in the presence of an excess of unlabelled ligand. […] The inhibition constants (Ki) were calculated using the Cheng Prusoff equation (Ki=IC50/(1+(L/KD)), where L=concentration of radioligand in the assay, and KD=affinity of the radioligand for the receptor).

The test system of a further data set is Sprague Dawley rat. The data set can be described thus: Open field test of locomotor activity in non-olfactory bulbectomized Sprague Dawley rats. Format: in vivo. To be noted: 10 mg/kg s.c. 30 min before 30 min test, vs vehicle. From the text: Significant changes in locomotor activity may indicate an abnormal response to a drug (e.g., psychomotor retardation, agitation or behavioral sensitization). The Open field test is a commonly used qualitative and quantitative measure of general locomotor activity and willingness to explore in rodents. The objective of this study is to evaluate the effect of Compound-1 on locomotor activity in the (non-olfactory bulbectomized) rat. This study serves as a control experiment for the agitation and anxiety assays described above.
The study design included 2 treatment groups. Rats were randomized into their respective treatments. The experiment was carried out on a single day.
Sixteen male Sprague Dawley rats (Charles River, Raleigh, N.C.) were used for this study. Rats were single housed and weighed 200-225 g upon receipt. All rats were maintained on a 12 h light-12 h dark cycle with free access to food and water. Husbandry was conducted in accordance with the 2011 Guide for the Care and Use of Laboratory Animals (NRC, 2011).
(§1) Subcutaneous doses were administered via flank injection at a dose volume of 1 mL/kg 30 minutes before behavioral testing. Dose volumes were adjusted for the weight of the animal on the day of the experiment.
Rats were allowed to acclimate to the facility for 1 week before behavioral testing. Rats were placed in the Open field arena 30 minutes post-drug administration for a 30 min test. This experiment was run under dim light and low white noise conditions.
The following parameters were assayed:
1. Distance travelled (cm)
3. Stereotypy counts (arbitrary unit)
4. Number of rears (exploratory behavior)
5. Average velocity (cm/s)
The behavior was recorded and analyzed by an automated tracking system (Med Associates). GraphPad Prism 6.0 was used to prepare graphs and to perform data analysis including one-way ANOVA or t-test analysis of locomotor activity where appropriate.

Data set [2] relates to olfactory bulbectomized (OBX) rat. Nature of the data set: Efficacy study in an animal model of anxiety: marble burying in the OBX rat. Format: in vivo. To be noted: OBX rats; 10 mg/kg single s.c. injection 30 min before 20 min test. As to the method: Rodents will also bury non-aversive unconditioned objects, such as food pellets and glass marbles; an effect reversible by compounds that have anxiolytic efficacy.
(§2) The study design included 4 treatment groups. Rats were assigned to their respective treatments by stratifying into groups based on body weight and arena. The experiment was carried out on a single day.
Thirty-two male Sprague Dawley rats (Charles River, Raleigh, N.C.) were used for this study. Rats were single housed and weighed 200-225 g upon receipt. All rats were maintained on a 12 h light-12 h dark cycle with free access to food and water. Husbandry was conducted in accordance with the 2011 Guide for the Care and Use of Laboratory Animals (NRC, 2011).
as §1
(§3) OBX rats and their weight-matched non-surgery controls were allowed to acclimate/recover from the surgical procedure for at least 4 weeks to permit the onset of the behavioral deficit. Rats were handled periodically throughout this acclimation period to prevent excessive aggression. […]
Marbles were considered “buried” if more than ⅔ surface was not visible. The number of uncovered/buried marbles was recorded and photographed by experimenter blind to drug treatment. […]

Data set [3] shares this test system. Nature of the data set: Efficacy study in an animal model of agitation: open field locomotor activity in the OBX rat. It counts as in vivo. Conditions: OBX rats; single s.c. injection 30 min before test; Compound-1 10 and 30 mg/kg. As to the method: The objective of this study is to assess the efficacy of Compound-1 in an animal model of agitation: the olfactory bulbectomized (OBX) rat.
as §2
Forty-four male Sprague Dawley rats (Charles River, Raleigh, N.C.) were used for this study. Rats were single housed and weighed 200-225 g upon receipt. All rats were maintained on a 12 h light-12 h dark cycle with free access to food and water. Husbandry was conducted in accordance with the 2011 Guide for the Care and Use of Laboratory Animals (NRC, 2011).
as §1, §3
The following parameters were assayed: • 1. […] The behavior was recorded and analyzed by an automated tracking system (Med Associates). […]

Data set [4] addresses T2, cloned human NMDA receptor (NR1/NR2A) channel (Homo sapiens, UniProt Q05586+Q12879).
T2 construct: expressed in transfected cells; host or cells: HEK293
The data set can be described thus: FLIPR Ca++ flux assay in NR1/NR2A expressing HEK cells. Format: cell-based. As to the method:
(§4) The NMDA receptor is an ionotropic glutamate receptor that forms a cation-selective channel. Test articles were assessed for their ability to inhibit calcium flux produced by a positive control agonist (100 μM Glutamic acid+20 μM Glycine) in cloned human NMDA receptor (NR1/NR2A) channel (encoded by the GRIN1 and GRIN2A genes) expressing HEK293 cells. A Fluo-8 calcium kit and a Fluorescence Imaging Plate Reader ([…]™) instrument was used to measure calcium flux. The potential antagonist effect of each test article was measured at eight concentrations (0.1, 0.3, 1, 3, 10, 30, 100, 300 μM; n=4 per concentration) after activating NR1/NR2A channel with the positive control agonist (100 μM Glutamic acid+20 μM Glycine).
as §4

Data set [5] in a line: Repeat dose general toxicology studies of up to six weeks. Format: in vivo. To be noted: rats, daily oral gavage up to six weeks. An excerpt:
NMDA antagonists are associated with a wide range of serious toxicities, including neurodegeneration. However, the therapeutic index of an NMDA antagonist can vary widely and is correlated with a property referred to as trapping at the drug binding site within the NMDA receptor channel. Higher trapping agents show increased toxicity relative to lower trapping agents and a reduced therapeutic index. Compounds of Formula I, or a Compound of Table 1, preferably Compound-1, have been evaluated in repeat dose general toxicology studies of up to six weeks in duration in both rats and dogs. In both species, Compounds of Formula I, or a Compound of Table 1, preferably Compound-1, were given daily by oral gavage at doses producing plasma concentrations of the drug that would exceed the expected human therapeutic exposures by at least 30-fold. […] This observation is consistent with the concept of the low trapping nature of Compounds of Formula I, or a Compound of Table 1, preferably Compound-1, and an improved therapeutic index over other NMDA antagonists characterized as high trapping agents.

SMILES strings stand for the structures. Structures can show the parent of a compound that is named as a salt.

T2 sequence (Q12879 23-1464, other chains not shown): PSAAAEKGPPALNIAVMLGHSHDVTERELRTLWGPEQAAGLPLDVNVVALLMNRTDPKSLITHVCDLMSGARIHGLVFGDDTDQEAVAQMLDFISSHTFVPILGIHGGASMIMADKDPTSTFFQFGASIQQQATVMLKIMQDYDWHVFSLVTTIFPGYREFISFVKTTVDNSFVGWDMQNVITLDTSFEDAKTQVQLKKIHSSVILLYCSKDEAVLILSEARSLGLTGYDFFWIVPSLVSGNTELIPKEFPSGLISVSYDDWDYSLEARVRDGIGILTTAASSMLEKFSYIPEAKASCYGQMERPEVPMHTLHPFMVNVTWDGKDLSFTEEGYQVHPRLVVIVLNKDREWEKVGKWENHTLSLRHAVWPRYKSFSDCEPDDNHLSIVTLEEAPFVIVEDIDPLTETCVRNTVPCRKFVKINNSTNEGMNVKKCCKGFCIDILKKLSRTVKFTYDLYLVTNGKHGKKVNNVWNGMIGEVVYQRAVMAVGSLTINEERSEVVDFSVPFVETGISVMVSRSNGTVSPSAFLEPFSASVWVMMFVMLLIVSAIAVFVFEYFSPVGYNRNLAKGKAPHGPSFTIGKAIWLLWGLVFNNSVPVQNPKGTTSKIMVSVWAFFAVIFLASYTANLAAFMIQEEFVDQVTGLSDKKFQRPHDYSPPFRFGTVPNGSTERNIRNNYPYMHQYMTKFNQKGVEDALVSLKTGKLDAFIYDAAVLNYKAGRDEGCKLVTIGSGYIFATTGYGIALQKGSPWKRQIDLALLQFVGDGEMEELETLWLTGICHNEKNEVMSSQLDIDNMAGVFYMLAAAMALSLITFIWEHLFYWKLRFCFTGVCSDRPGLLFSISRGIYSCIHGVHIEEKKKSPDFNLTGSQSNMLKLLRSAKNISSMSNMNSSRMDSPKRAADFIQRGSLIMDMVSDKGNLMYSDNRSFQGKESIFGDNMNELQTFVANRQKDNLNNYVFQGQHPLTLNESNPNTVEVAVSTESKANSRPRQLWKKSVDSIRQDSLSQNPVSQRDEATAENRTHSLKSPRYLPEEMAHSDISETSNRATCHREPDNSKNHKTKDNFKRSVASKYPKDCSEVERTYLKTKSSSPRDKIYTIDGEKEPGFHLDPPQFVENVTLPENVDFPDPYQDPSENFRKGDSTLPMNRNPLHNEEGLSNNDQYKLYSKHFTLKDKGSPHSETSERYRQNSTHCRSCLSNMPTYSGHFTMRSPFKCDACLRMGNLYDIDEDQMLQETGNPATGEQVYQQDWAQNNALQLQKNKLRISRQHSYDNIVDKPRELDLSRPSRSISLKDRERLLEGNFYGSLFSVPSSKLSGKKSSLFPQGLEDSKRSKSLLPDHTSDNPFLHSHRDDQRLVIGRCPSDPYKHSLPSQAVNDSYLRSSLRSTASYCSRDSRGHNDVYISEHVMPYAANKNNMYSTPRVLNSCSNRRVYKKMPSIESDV

Regarding `CN1CC[C@@]23CCCC[C@@H]2[C@@H]1Cc1ccc(C(N)=O)cc13` [Compound-1], the affinity in data set [1] corresponds to a Ki of 7.4 µM. The “mode of binding to the PCP binding site” value in data set [1] (rat cerebral cortex) was “binds competitively”. In addition, in the data set on Sprague Dawley rat, the “effect on average velocity” value is “no effect”, the “effect on jumping behavior” value was “no effect”, the “effect on locomotor activity (distance travelled)” value is listed as “no effect” and the effect on rearing entry is reported as “no effect”. In the data set with Sprague Dawley rat, the effect on stereotypy result is on record as “no effect”. The “burying response (marbles buried)” value in data set [2] is reported as “blocked this burying response”. The “locomotor response (distance travelled) in open field” value in data set [3] is on record as “blocked this hyperlocomotor response”. For the same compound, half-maximal inhibition in data set [4] (IC50) was put at 225 µM. The clinical changes result in data set [5] (highest doses evaluated) was “increased bone fractures and abnormalities in incisors”. Besides, in data set [5] (when clinical signs were present), the neurodegeneration entry is “no evidence of neurodegeneration”. The compound `CN1CC[C@@]23CCCCC2[C@@H]1Cc1ccc(-c2nccs2)cc13` (stereo partly shown) registered an IC50 in data set [4] of 33 µM. Turning to `COc1ccc2c(c1)[C@]13CCCC[C@@H]1[C@H](C2)N(C)CC3` [Dextromethorphan (DMX), Dextromethorphan, reference compound], the “burying response (marbles buried)” value in data set [2] was “blocked this burying response”. Also, the “locomotor response (distance travelled) in open field” value in data set [3] is listed as “blocks the locomotor response”. The same compound registered a concentration for half-maximal inhibition (IC50) in data set [4] of 107 µM. `CN1CC[C@@]23CCCC[C@@H]2[C@@H]1Cc1ccc(Br)cc13` showed a half-maximal inhibitory concentration (IC50) in data set [4] of 49 µM. Compound `CN1CC[C@@]23CCCCC2[C@@H]1Cc1ccc(-c2nnc(C(C)(C)O)s2)cc13` (stereo partly shown) displayed a half-maximal inhibitory concentration (IC50) in data set [4] of more than 500 µM.

`Cc1nnc(-c2ccc3c(c2)[C@]24CCCCC2[C@H](C3)N(CCc2ccccc2)CC4)s1` (stereo partly shown) came in with an IC50 in data set [4] of more than 500 µM. The same measure, in the same setting: under `Cc1nnc(-c2ccc3c(c2)[C@]24CCCC[C@@H]2[C@H](C3)N(C)CC4)s1` [Compound-3, 2-methyl-5-((4bS,9S)-11-methyl-6,7,8,8a,9,10-hexahydro-5H-9,4b-(epiminoethano)phenanthren-3-yl)-1,3,4-thiadiazole hydrochloride] stands 94 µM. As to `CN1CC[C@@]23CCCCC2[C@@H]1Cc1ccc(-c2ccsn2)cc13` (stereo partly shown), the IC50 in data set [4] was 15 µM. The same measure, in the same setting: under `CN1CC[C@@]23CCCCC2[C@@H]1Cc1ccc(-c2cscn2)cc13` (stereo partly shown) stands 50 µM; under `c1ccc(C2(N3CCCCC3)CCCCC2)cc1` [Phencyclidine (PCP), Phencyclidine, reference compound], 7.5 µM; under `CN1CC[C@@]23CCCCC2[C@@H]1Cc1ccc(-c2nnc(CO)s2)cc13` (stereo partly shown), 47.5 µM. On the same count and under the same terms, under `CN1CC[C@@]23CCCCC2[C@@H]1Cc1ccc(-c2nnc(C(C)(C)C)s2)cc13` (stereo partly shown) stands more than 500 µM; under `O=C(O)c1ccc2c(c1)[C@]13CCCC[C@@H]1[C@H](C2)N(CCc1ccccc1)CC3`, more than 500 µM. On to `Cc1nnc(-c2ccc3c(c2)[C@]24CCCC[C@@H]2[C@H](C3)N(C)CC4)o1`, for which the IC50 in data set [4] was more than 500 µM.

In data set [4], `CN1CC[C@@]23CCCCC2[C@@H]1Cc1ccc(-c2nnc(C(F)(F)F)s2)cc13` (stereo partly shown) displayed an IC50 of more than 500 µM.

`CNC1(c2ccccc2Cl)CCCCC1=O` (stereo not shown) [Ketamine, reference compound] yielded an IC50 in data set [4] of 57.2 µM.

Regarding `CN1CC[C@@]23CCCCC2[C@@H]1Cc1ccc(-c2nnc(N)s2)cc13` (stereo partly shown), in data set [4], the IC50 worked out at 35.5 µM. The compound `CN1CC[C@@]23CCCC[C@@H]2[C@@H]1Cc1ccc(-c2nncs2)cc13` [Compound-2, 2-((4bS,9S)-11-methyl-6,7,8,8a,9,10-hexahydro-5H-9,4b-(epiminoethano)phenanthren-3-yl)-1,3,4-thiadiazole hydrochloride] gave a 50% inhibitory concentration (IC50) in data set [4] of 225 µM.

The values are drawn from patent US20160243112A1, “TREATMENTS FOR ALZHEIMER'S RELATED DISEASES AND DISORDERS” (Alkermes, Inc., priority 2015, published 2016).
